In patent US12286632B2, “Rationally-designed synthetic peptide shuttle agents for delivering polypeptide cargos from an extracellular space to the cytosol and/or nucleus of a target eukaryotic cell, uses thereof, methods and kits relating to same” (Feldan Bio Inc., priority 2016, dated 2025):

Assays:
[1] = system: 293T, Balb3T3, CHO, Myoblasts, Jurkat, CA46, HT2 and NIH3T3 cells; assay: GFP-NLS transduction in several adherent and suspension cells, visualization by microscopy; format: cell-based; details: 35 μM, 10 seconds (adherent) or 5 μM, 15 seconds (suspension); GFP-NLS 5 μM
Experimental: GFP-NLS recombinant protein (5 μM; see Example 5.1) was co-incubated with 35 μM of His-CM18-PTD4 and exposed to adherent cells for 10 seconds using […], or was co-incubated with 5 μM of His-CM18-PTD4 and exposed to suspension cells for 15 seconds using Protocol B, as described in Example 9.1. After washing the cells, GFP fluorescence was visualized by bright field and fluorescence microscopy. Sample images captured at 10× magnifications showing GFP fluorescence are shown for 293T (FIG. 37A), Balb3T3 (FIG. 37B), CHO (FIG. 37C), Myoblasts (FIG. 370), Jurkat (FIG. 37E), CA46 (FIG. 37F), HT2 (FIG. 37G), and NIH3T3 (FIG. 37H) cells. The insets show corresponding flow cytometry results performed as described in Example 3.3, indicating the percentage of GFP-NLS-positive cells.
Nuclear localization of the GFP-NLS was further confirmed in fixed and permeabilized myoblasts using cell immuno-labelling as described in Example 3.2a. GFP-NLS was labeled using a primary mouse monoclonal anti-GFP antibody (Feldan, #A017) and a secondary goat anti-mouse Alexa™-594 antibody (Abcam #150116). Nuclei were labelled with DAPI. Sample results for primary human myoblast cells are shown in FIG. 38, in which GFP immuno-labelling is shown in FIG. 38A, and an overlay of the GFP immuno-labelling and DAPI labelling is shown in FIG. 38B.

HeLa cells = assay: GFP-NLS protein transduction assay (flow cytometry: Pos cells %, viability %, relative fluorescence intensity; microscopy); details: for Relative fluorescence intensity (FL1-A) (n = 3): Table 10.3, Protocol C
CA46 cells = assay: GFP-NLS transduction in different adherent and suspension cells (flow cytometry, Pos cells % and viability %); format: cell-based, Homo sapiens; details: Protocol C, 5 μM shuttle, 5 μM GFP-NLS, 15 seconds
Experimental: The ability of the shuttle agent His-CM18-PTD4 to deliver GFP-NLS to the nuclei of different adherent and suspension cells using Protocols B (adherent cells) or C (suspension cells) as described in Example 9.1 was examined. The cell lines tested included: HeLa, Balb3T3, HEK 293T, CHO, NIH3T3, Myoblasts, Jurkat, THP-1, CA46, and HT2 cells, which were cultured as described in Example 1. GFP-NLS (5 μM; see Example 5.1) was co-incubated with 35 μM of His-CM18-PTD4 and exposed to adherent cells for 10 seconds (Protocol B), or was co-incubated with 5 μM of His-CM18-PTD4 and exposed to suspension cells for 15 seconds (Protocol C). […] “Pos cells (%)” is the mean percentages of all cells that emanate a GFP signal.

[2] = HeLa, Protocol B, 35 μM shuttle, 5 μM GFP-NLS, 10 seconds
[3] = Table 10.3a, Protocol B, HeLa, shuttle 50 μM, GFP-NLS 5 μM, 10 seconds

Compound: CC[C@H](C)[C@H](NC(=O)[C@H](CCCCN)NC(=O)[C@H](CCCCN)NC(=O)[C@H](Cc1ccccc1)NC(=O)[C@H](CC(C)C)NC(=O)[C@H](CCCCN)NC(=O)[C@H](Cc1c[nH]c2ccccc12)NC(=O)[C@H](CCCCN)NC(=O)[C@H](Cc1c[nH]cn1)NC(=O)[C@H](Cc1c[nH]cn1)NC(=O)[C@H](Cc1c[nH]cn1)NC(=O)[C@H](Cc1c[nH]cn1)NC(=O)[C@H](Cc1c[nH]cn1)NC(=O)[C@@H](N)Cc1c[nH]cn1)C(=O)NCC(=O)N[C@@H](C)C(=O)N[C@H](C(=O)N[C@@H](CC(C)C)C(=O)N[C@@H](CCCCN)C(=O)N[C@H](C(=O)N[C@@H](CC(C)C)C(=O)N[C@H](C(=O)N[C@H](C(=O)NCC(=O)N[C@@H](Cc1ccc(O)cc1)C(=O)N[C@@H](C)C(=O)N[C@@H](CCCNC(=N)N)C(=O)N[C@@H](C)C(=O)N[C@@H](C)C(=O)N[C@@H](C)C(=O)N[C@@H](CCCNC(=N)N)C(=O)N[C@@H](CCC(N)=O)C(=O)N[C@@H](C)C(=O)N[C@@H](CCCNC(=N)N)C(=O)N[C@@H](C)C(=O)O)[C@@H](C)O)[C@@H](C)O)C(C)C)C(C)C [His-CM18-PTD4]
- GFP-NLS nuclear delivery (microscopy) [1]: successfully delivered to the nucleus of all the tested cells
- Cell viability (%) (±St. Dev.; n = 3) (HeLa cells; [2]): 94.6 ± 0.4%
- Mean % cells with GFP signal (±St. Dev.; n = 3) (HeLa cells; [2]): 72.3 ± 5.3%
- Mean % cells with GFP signal (±St. Dev.; n = 3) (HeLa cells; Table 9.1, Protocol A, HeLa, shuttle 10 μM, GFP-NLS 5 μM, 1 hour): 25.4 ± 3.6%
- Mean % cells with GFP signal (±St. Dev.; n = 3) (HeLa cells; Table 9.1, Protocol B, HeLa, shuttle 35 μM, GFP-NLS 5 μM, 10 seconds): 78.3 ± 5.3%
- Mean % cells with GFP signal (±St. Dev.; n = 3) (HeLa cells; Table 9.2, Protocol B, HeLa, shuttle 10 μM, GFP-NLS 5 μM, 10 seconds): 25.3 ± 3.6%
- Mean % cells with GFP signal (±St. Dev.; n = 3) (HeLa cells; Table 9.2, Protocol B, HeLa, shuttle 25 μM, GFP-NLS 5 μM, 10 seconds): 62.1 ± 6.1%
- Mean % cells with GFP signal (±St. Dev.; n = 3) (HeLa cells; Table 9.2, Protocol B, HeLa, shuttle 35 μM, GFP-NLS 5 μM, 10 seconds): 77.7 ± 7.8%
- Mean % cells with GFP signal (±St. Dev.; n = 3) (HeLa cells; Table 9.2, Protocol B, HeLa, shuttle 50 μM, GFP-NLS 5 μM, 10 seconds): 73.2 ± 5.2%
- Mean % cells with GFP signal (±St. Dev.; n = 3) (HeLa cells; Table 10.1, Protocol B, HeLa, shuttle 50 μM, GFP-NLS 5 μM, 10 seconds): 68 ± 2.2%
- Mean % cells with GFP signal (±St. Dev.; n = 3) (HeLa cells; Table 10.2, Protocol B, HeLa, shuttle 10 μM, GFP-NLS 5 μM, incubation 1 min.): 50.6 ± 3.5%
- Mean % cells with GFP signal (±St. Dev.; n = 3) (HeLa cells; Table 10.2, Protocol B, HeLa, shuttle 10 μM, GFP-NLS 5 μM, incubation 2 min.): 74 ± 3.3%
- Mean % cells with GFP signal (±St. Dev.; n = 3) (HeLa cells; Table 10.2, Protocol B, HeLa, shuttle 10 μM, GFP-NLS 5 μM, incubation 5 min.): 82.7 ± 5.0%
- Relative fluorescence intensity (FL1-A) (n = 3) (HeLa cells; HeLa, shuttle 10 μM, GFP-NLS 5 μM, incubation 1 min.): 524 151
- Relative fluorescence intensity (FL1-A) (n = 3) (HeLa cells; HeLa, shuttle 10 μM, GFP-NLS 5 μM, incubation 2 min.): 755 624
- Relative fluorescence intensity (FL1-A) (n = 3) (HeLa cells; HeLa, shuttle 10 μM, GFP-NLS 5 μM, incubation 5 min.): 173 930
- Cell viability (%) (±St. Dev.; n = 3) (HeLa cells; [3]): 92 ± 3.6%
- Mean % cells with GFP signal (±St. Dev.; n = 3) (HeLa cells; [3]): 68 ± 2.2%
- Mean % cells with GFP signal (±St Dev.; n = 3) (HeLa cells; Table 10.3e, Protocol B, HeLa, shuttle 20 μM, GFP-NLS 5 μM, 1 minute): 60.3 ± 3.2%
- GFP-NLS transduction efficiency (HeLa cells; peptide 20 μM, GFP-NLS 5 μM, 1 minute, Protocol B (Table 10.3e)): 60%
- GFP-NLS delivery (microscopy, in words) (HeLa cells; shuttle 35 μM, GFP-NLS 5 μM, 10 seconds, Protocol B): successfully transduced and delivered to the nucleus and/or the cytosol
- time by which GFP-NLS is delivered to the nucleus (HeLa cells; shuttle 50 μM, GFP-NLS 5 μM, exposed 10 seconds, Protocol B, microscopy): ≤ 2 min
- Cell viability (%) (±St. Dev.; n = 3) (CA46 cells): 71.6 ± 1.0%
- Mean % cells with GFP signal (±St. Dev.; n = 3) (CA46 cells): 24.4 ± 0.6%
